# Laboratory results reported in patent US20080069809A1, “Compositions and methods for the diagnosis and treatment of cancer” (priority 2006, published 2008).
# Legend:
# Assay type in all cases: cell-based
# [1] = tested on: KG1a; assay: Differentiation (CD11b expression) in KG1a cells; details: agent alone
# Description: (§1) The myeloid leukemic cell lines HL60, NB60, NB4, U937, K562 and KG1a were all grown in RPMI 1640 medium (Life Technologies, Paisley, United Kingdom) supplemented with 10% v/v fetal calf serum (Sear Laboratories International Crawley, United Kingdom), 100 U/mL penicillin, and 100 μg/mL streptomycin (Sigma Aldrich, Poole, United Kingdom) at 37° C. and 5% v/v CO2. AML blasts were isolated from patient bone marrow aspirates and peripheral blood of eight patients at diagnosis or relapse. Patients were not receiving AML therapy at time of sampling. Blasts were isolated by Ficoll density centrifugation and were cultured in serum-free insulin transferrin selenium-positive (ITS+) medium (Life Technologies) containing 300 ng/mL stem cell factor (SCF) and 10 ng/mL interleukin 3 (IL3; R and D Systems, Abingdon, United Kingdom) and antibiotics. Blast purity ranged from 80% to 95%, as assessed by expression of CD34. Normal myeloblasts were isolated from cord blood or adult mobilized peripheral blood. Briefly, CD34^+ cells were indirectly selected from the mononuclear cell preparations using antibody-coated magnetic beads (Miltenyi Biotec, United Kingdom).
# Cell differentiation was determined by staining of cells with anti-CD11b antibody as a general early marker of myeloid differentiation. In studies with HL60 cells, PEP005-treated and 20 nM phorbol myristate (PMA)-treated (Sigma Aldrich) cells were also assessed for their ability to phagocytose complement-coated yeast, a marker of a fully differentiated myeloid cell, as previously described (Toksoz et al, Leukemia Res 6:491-498, 1982). The ingestion of three or more yeasts was taken as a positive result. In normal cord blood or adult bone marrow myeloblasts, loss of CD34 was taken as a marker of differentiation. Isotype-matched controls were used and all antibodies were from DAKO (Cambridge, United Kingdom). […] Images were captured with a SPOT2 cameria (Diagnostic Instructions, Sterling Heights, Mich.) and analyzed using Image-Pro 4.0 software (Media Cybernetics, Silver Spring, Md.).
# [2] = tested on: HL60; assay: Apoptosis (sub-G1 DNA by FACS, caspase-3 activation) in HL60 leukemic cells
# Description: as §1, with “Blast purity ranged from 80% to 95%, as assessed by expression of CD34.” left out
# To determine the effects of ingenol-3-angelate (PEP005), cells were incubated for up to 5 days with medium alone or PEP005 at a range of concentrations from 0.2 nM to 20 μM. PEP005 was extracted from Euphorbia peplus and supplied as a 98.5% pure preparation by Peplin Limited (Brisbane, Australia) as a dry pellet and was made up to a stock of […] in acetone on a weekly basis. Stocks were stored at 4° C. and diluted into medium when required. Final acetone concentration was never more than 0.1% v/v. Apoptosis and differentiation were assessed after 1 to 5 days.
# [3] = tested on: HL60; assay: Phagocytosis of complement-coated yeast by HL60 cells; details: after 3 days of treatment, PMA 20 nM
# Description: Cell differentiation was determined by staining of cells with anti-CD11b antibody as a general early marker of myeloid differentiation. In studies with HL60 cells, PEP005-treated and 20 nM phorbol myristate (PMA)-treated (Sigma Aldrich) cells were also assessed for their ability to phagocytose complement-coated yeast, a marker of a fully differentiated myeloid cell, as previously described (Toksoz et al, Leukemia Res 6:491-498, 1982). The ingestion of three or more yeasts was taken as a positive result. In normal cord blood or adult bone marrow myeloblasts, loss of CD34 was taken as a marker of differentiation. Isotype-matched controls were used and all antibodies were from DAKO (Cambridge, United Kingdom). […] Cells were also used to prepare cytospins, which were then differentially stained using a commercial May-Grünwald-Ginesa stain (Diff-Kwik; Gamidor, Abingdon, United Kingdom) to identify cells with a blast or differentiated or apoptotic morphology. Slides were examined using a Zeiss III RS brightfield microscope equipped with a 40×/0.75 water-immersion objective (Carl Zeiss, Jena, Germany). Images were captured with a SPOT2 cameria (Diagnostic Instructions, Sterling Heights, Mich.) and analyzed using Image-Pro 4.0 software (Media Cybernetics, Silver Spring, Md.).
# [4] = molecular target: T1, PKC-δ (Homo sapiens, UniProt Q05655); assay: PKC-δ activation by translocation (cell fractionation, Western blotting) in HL60 cells; details: 20 nM PEP005 or 20 nM PMA, 10 minutes
# T1 construct: endogenous in cells; host or cells: HL60
# Description: PKC translocates from the soluble to the particulate fraction of cells when activated and this method was used to assess activation of PKC-δ by PEP005 and PMA. Briefly, cells were incubated for 10 minutes in medium alone or 20 nM PEP005 or 20 nM PMA, washed twice in phosphate buffered saline (PBS) and then lysed by homogenization in hypotonic lysis buffer in the absence of detergent. Lysis was checked using trypan blue uptake. Nuclei were isolated by centrifugation at 1000 g for 10 minutes. Centrifugation at 100,000 g for 45 minutes at 4° C. was used to isolate the cytosol (supernatant) and cell membrane (pellet) fractions. All were taken up in SDS sample buffer and analyzed for PKC-δ by Western blotting.
# [5] = tested on: caspase-3; assay: Caspase-3 phosphorylation in 32PO4-labeled HL60 cells; details: 20 nM PEP005 and 5 μM rottlerin
# Description: To determine if PEP005 induced caspase-3 phosphorylation, HL60 cells were incubated with 1.5×10^7 Bq/mL ^32PO4 (Amersham Pharmacia) in phosphate-free medium for 3 hours prior to addition of 20 nM PEP005 or PEP005 and 5 μM rottlerin (Calbiochem, Nottingham, United Kingdom). Cells were then lysed and caspase-3 was immunoprecipitated with an anti-caspase-3 antibody (BD Pharmingen, Oxford, United Kingdom) or an irrelevant isotype-matched control antibody (DAKO) and the immunoprecipitate was isolated using an anti-mouse immunoglobulin G (IgG) antibody (DAKO) and protein G-coated magnetic beads (microbeads; Miltenyi Biotech). The isolate was taken up in SDS sample buffer and run on a 10% w/v SDS-polyacrylamide gel electrophoresis (PAGE) gel and the labeled proteins were visualized using a phosphorimager.
# T1 sequence (Q05655 whole entry): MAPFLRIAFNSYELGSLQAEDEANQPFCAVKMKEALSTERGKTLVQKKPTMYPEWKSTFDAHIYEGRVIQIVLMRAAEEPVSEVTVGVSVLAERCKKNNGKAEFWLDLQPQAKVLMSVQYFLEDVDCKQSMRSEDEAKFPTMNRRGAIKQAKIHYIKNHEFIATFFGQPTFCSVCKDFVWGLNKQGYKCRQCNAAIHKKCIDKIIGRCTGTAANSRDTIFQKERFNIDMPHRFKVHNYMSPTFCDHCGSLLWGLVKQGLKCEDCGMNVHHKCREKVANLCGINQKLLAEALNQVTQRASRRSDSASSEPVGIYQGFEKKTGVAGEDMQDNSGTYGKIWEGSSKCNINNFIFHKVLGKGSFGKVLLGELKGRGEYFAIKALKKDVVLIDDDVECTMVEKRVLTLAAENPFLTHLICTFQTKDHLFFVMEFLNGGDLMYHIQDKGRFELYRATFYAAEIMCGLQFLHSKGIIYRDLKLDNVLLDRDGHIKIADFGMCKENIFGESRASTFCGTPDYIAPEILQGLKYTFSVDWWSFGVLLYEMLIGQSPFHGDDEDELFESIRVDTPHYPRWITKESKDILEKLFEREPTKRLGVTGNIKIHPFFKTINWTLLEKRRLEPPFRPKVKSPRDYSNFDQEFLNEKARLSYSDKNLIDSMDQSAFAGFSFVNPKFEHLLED
smiles,measurement,setting,value
"CC1=C(/C=C/C(C)=C/C=C/C(C)=C/C(=O)O)C(C)(C)CCC1 [ATRA, all-trans retinoic acid, reference compound]",differentiation response,[1],did not respond
"CCCCCCCCCCCCCC(=O)O[C@@H]1[C@@H](C)[C@@]2(O)[C@@H](C=C(CO)C[C@]3(O)C(=O)C(C)=C[C@@H]23)[C@@H]2C(C)(C)[C@]12OC(C)=O [PMA, phorbol myristate, reference compound]",apoptosis (caspase-3 activity),"[2]; after 3 days of treatment, PMA 20 nM",no increase in apoptosis
same,differentiation to phagocytes (ability to phagocytose yeast),[3],induced differentiation of HL60 cells toward phagocytes
same,site of initial PKC-δ translocation,[4],only to the cell membrane
"CN(C)CCCn1cc(C2=C(c3c[nH]c4ccccc34)C(=O)NC2=O)c2ccccc21 [bisindolylmaleimide I, reference compound]",inhibition of PEP005-induced apoptosis (caspase-3 activation),[2]; 20 nM PEP005 with 1 μM Bis-1 or 20 nM Go6976,inhibited
"CC(=O)c1c(O)c(C)c(O)c(Cc2c(O)c3c(c(C(=O)/C=C/c4ccccc4)c2O)OC(C)(C)C=C3)c1O [rottlerin, reference compound]",effect on PEP005-induced caspase-3 phosphorylation,[5],ablated
